The test has as its system MV-4-11 cells. Nature of the test: Gene expression microarray analysis (Affymetrix PrimeView) and GSEA. It counts as cell-based, human. To be noted: MV-4-11 cells, 48 hours. The arrangement: RFU PODN (11730768_x_at) / Fold change /veh PODN (11730768_x_at) / RFU LINC00158 (11744669_a_at) / Fold change /veh LINC00158 (11744669_a_at) / RFU DUSP10 (11751237_a_at) / Fold change /veh DUSP10 (11751237_a_at) / RFU ID3 (11757404_x_at) / Fold change /veh ID3 (11757404_x_at) / RFU PLEKHG5 (11737974_s_at) / Fold change /veh PLEKHG5 (11737974_s_at) / RFU LRRC4B (11730491_at) / Fold change /veh LRRC4B (11730491_at) / RFU GIMAP4 (11747438_a_at) / Fold change /veh GIMAP4 (11747438_a_at) / RFU KRT8 (11758183_x_at) / Fold change /veh KRT8 (11758183_x_at) / RFU CNN1 (11734310_a_at) / Fold change /veh CNN1 (11734310_a_at) / RFU VPS37D (11726825_at) / Fold change /veh VPS37D (11726825_at) / RFU C10orf10 (11716522_x_at) / Fold change /veh C10orf10 (11716522_x_at) / RFU KIR2DL2 /// KIR2DL4 /// KIR2DL5A /// KIR2DL5B /// KIR2DS1 /// KIR2DS2 /// KIR2DS3 /// KIR2DS4 /// KIR3DL3 /// KIR3DL3 /// KIR3DS1 (11738374_at) / Fold change /veh KIR2DL2 /// KIR2DL4 /// KIR2DL5A /// KIR2DL5B /// KIR2DS1 /// KIR2DS2 /// KIR2DS3 /// KIR2DS4 /// KIR3DL3 /// KIR3DL3 /// KIR3DS1 (11738374_at) / RFU C1QL1 (11718748_at) / Fold change /veh C1QL1 (11718748_at) / RFU TMPRSS4 (11747572_a_at) / Fold change /veh TMPRSS4 (11747572_a_at) / RFU HAMP (11756126_x_at) / Fold change /veh HAMP (11756126_x_at) / RFU RNFT2 (11725882_a_at) / Fold change /veh RNFT2 (11725882_a_at) / RFU NR4A2 (11747474_a_at) / Fold change /veh NR4A2 (11747474_a_at) / RFU ABCC12 (11746883_a_at) / Fold change /veh ABCC12 (11746883_a_at) / RFU TMEM136 (11760407_x_at) / Fold change /veh TMEM136 (11760407_x_at) / RFU CLDN22 /// WWC2 (11732394_at) / Fold change /veh CLDN22 /// WWC2 (11732394_at) / RFU HLA-DPB1 (11760878_x_at) / Fold change /veh HLA-DPB1 (11760878_x_at) / RFU SPINT1 (11716480_a_at) / Fold change /veh SPINT1 (11716480_a_at) / RFU GAP43 (11754022_s_at) / Fold change /veh GAP43 (11754022_s_at) / RFU A4GNT (11735810_at) / Fold change /veh A4GNT (11735810_at) / RFU PRB3 (11715151_x_at) / Fold change /veh PRB3 (11715151_x_at) / RFU TUBB4B (11761932_at) / Fold change /veh TUBB4B (11761932_at) / RFU CAPN14 (11732068_a_at) / Fold change /veh CAPN14 (11732068_a_at) / RFU TMCC2 (11721928_a_at) / Fold change /veh TMCC2 (11721928_a_at) / RFU IRGQ (11745062_a_at) / Fold change /veh IRGQ (11745062_a_at) / RFU FAM174B (11720279_a_at) / Fold change /veh FAM174B (11720279_a_at) / RFU TMPRSS4 (11748680_a_at) / Fold change /veh TMPRSS4 (11748680_a_at) / RFU FAM212B (11763350_a_at) / Fold change /veh FAM212B (11763350_a_at) / RFU PLEKHG5 (11743358_a_at) / Fold change /veh PLEKHG5 (11743358_a_at) / RFU ZSCAN30 (11745921_a_at) / Fold change /veh ZSCAN30 (11745921_a_at) / RFU CMKLR1 (11741424_a_at) / Fold change /veh CMKLR1 (11741424_a_at) / RFU LOC101060620 /// MAPK8IP1 (11723275_at) / Fold change /veh LOC101060620 /// MAPK8IP1 (11723275_at) / RFU SPTSSB (11747773_x_at) / Fold change /veh SPTSSB (11747773_x_at) / RFU PRSS12 (11739890_at) / Fold change /veh PRSS12 (11739890_at) / RFU BIN1 (11741810_x_at) / Fold change /veh BIN1 (11741810_x_at) / RFU WNT11 (11732464_a_at) / Fold change /veh WNT11 (11732464_a_at) / RFU C10orf10 (11716521_a_at) / Fold change /veh C10orf10 (11716521_a_at) / RFU C5orf56 (11738089_at) / Fold change /veh C5orf56 (11738089_at) / RFU CYB561 (11721691_x_at) / Fold change /veh CYB561 (11721691_x_at) / RFU ANKRD19P (11752326_a_at) / Fold change /veh ANKRD19P (11752326_a_at) / RFU OR2T12 /// OR2T33 /// OR2T8 (11738714_s_at) / Fold change /veh OR2T12 /// OR2T33 /// OR2T8 (11738714_s_at) / RFU VCAN (11748164_a_at) / Fold change /veh VCAN (11748164_a_at) / RFU JSRP1 (11732532_at) / Fold change /veh JSRP1 (11732532_at) / RFU KRTAP10-11 (11738290_x_at) / Fold change /veh KRTAP10-11 (11738290_x_at) / RFU MYO3A (11730013_a_at) / Fold change /veh MYO3A (11730013_a_at) / RFU EBF3 (11725865_a_at) / Fold change /veh EBF3 (11725865_a_at) / RFU CAMK2N1 (11719241_x_at) / Fold change /veh CAMK2N1 (11719241_x_at) / RFU C5orf56 (11738088_a_at) / Fold change /veh C5orf56 (11738088_a_at) / RFU OLFML3 (11715873_a_at) / Fold change /veh OLFML3 (11715873_a_at) / RFU LOC100653217 /// NTM (11731650_a_at) / Fold change /veh LOC100653217 /// NTM (11731650_a_at) / RFU MAPK11 (11762145_a_at) / Fold change /veh MAPK11 (11762145_a_at) / RFU FIZ1 (11724087_x_at) / Fold change /veh FIZ1 (11724087_x_at) / RFU OASL (11726364_x_at) / Fold change /veh OASL (11726364_x_at) / RFU SOX15 (11748057_x_at) / Fold change /veh SOX15 (11748057_x_at) / RFU CD79A (11719716_a_at) / Fold change /veh CD79A (11719716_a_at) / RFU HIST1H1D (11736915_at) / Fold change /veh HIST1H1D (11736915_at) / RFU CASKIN2 (11723855_a_at) / Fold change /veh CASKIN2 (11723855_a_at) / RFU LOC730098 (11760151_x_at) / Fold change /veh LOC730098 (11760151_x_at) / RFU OR4N2 (11742367_at) / Fold change /veh OR4N2 (11742367_at) / RFU PRRT2 (11749266_a_at) / Fold change /veh PRRT2 (11749266_a_at) / RFU SNX32 (11753110_a_at) / Fold change /veh SNX32 (11753110_a_at) / RFU CDHR5 (11726645_a_at) / Fold change /veh CDHR5 (11726645_a_at) / RFU RCAN1 (11760418_a_at) / Fold change /veh RCAN1 (11760418_a_at) / RFU FAM167A (11723789_a_at) / Fold change /veh FAM167A (11723789_a_at) / RFU FAM26E (11764081_at) / Fold change /veh FAM26E (11764081_at) / RFU ISYNA1 (11749810_s_at) / Fold change /veh ISYNA1 (11749810_s_at) / RFU ACY1 (11761880_at) / Fold change /veh ACY1 (11761880_at) / RFU 11764098_at / Fold change /veh 11764098_at / RFU SAMD14 (11745864_x_at) / Fold change /veh SAMD14 (11745864_x_at) / RFU NPB (11741838_a_at) / Fold change /veh NPB (11741838_a_at) / RFU TMPRSS6 (11731388_a_at) / Fold change /veh TMPRSS6 (11731388_a_at) / RFU KRTAP10-2 (11738614_at) / Fold change /veh KRTAP10-2 (11738614_at) / RFU ARHGAP8 /// PRR5-ARHGAP8 (11727945_x_at) / Fold change /veh ARHGAP8 /// PRR5-ARHGAP8 (11727945_x_at) / RFU KRTAP5-7 /// NADSYN1 (11734609_at) / Fold change /veh KRTAP5-7 /// NADSYN1 (11734609_at) / RFU RASL12 (11751679_a_at) / Fold change /veh RASL12 (11751679_a_at) / RFU CDKN2B (11736163_a_at) / Fold change /veh CDKN2B (11736163_a_at) / RFU PRF1 (11729649_at) / Fold change /veh PRF1 (11729649_at) / RFU, ZNF638 /// ZNF638-IT1 / Fold change vs veh, ZNF638 /// ZNF638-IT1 / RFU, PANK3 / Fold change vs veh, PANK3 / RFU, SH3YL1 / Fold change vs veh, SH3YL1 / RFU, ZEB2 / Fold change vs veh, ZEB2 / RFU, NRIP1 / Fold change vs veh, NRIP1 / RFU, PTTG1IP / Fold change vs veh, PTTG1IP / RFU, CAPN2 / Fold change vs veh, CAPN2 / RFU, MED14 / Fold change vs veh, MED14 / RFU, SNORA58 / Fold change vs veh, SNORA58 / RFU, C1orf63 / Fold change vs veh, C1orf63 / RFU, LRRFIP1 / Fold change vs veh, LRRFIP1 / RFU, NDUFAF7 / Fold change vs veh, NDUFAF7 / RFU, SLC12A2 / Fold change vs veh, SLC12A2 / RFU, IBTK / Fold change vs veh, IBTK / RFU, ESF1 / Fold change vs veh, ESF1 / Fold change vs veh, TMEM50B / RFU, TAOK1 / Fold change vs veh, TAOK1 / RFU, ACBD3 / Fold change vs veh, ACBD3 / RFU, TMA16 / Fold change vs veh, TMA16 / RFU, RWDD3 / Fold change vs veh, RWDD3 / RFU, BCAT1 / Fold change vs veh, BCAT1 / RFU, EDEM3 / Fold change vs veh, EDEM3 / RFU, TMEM33 / Fold change vs veh, TMEM33 / RFU, WDR75 / Fold change vs veh, WDR75 / RFU, AHCTF1 / Fold change vs veh, AHCTF1 / RFU, TFRC / Fold change vs veh, TFRC / RFU, ZDHHC17 / Fold change vs veh, ZDHHC17 / RFU, NOM1 / Fold change vs veh, NOM1 / RFU, ARL8B / Fold change vs veh, ARL8B / RFU, ZBTB11 / Fold change vs veh, ZBTB11 / RFU, TAMM41 / Fold change vs veh, TAMM41 / RFU, KIAA1704 /// LOC100996395 / Fold change vs veh, KIAA1704 /// LOC100996395 / RFU, ING1 / Fold change vs veh, ING1 / RFU, TRMT61B / Fold change vs veh, TRMT61B / RFU, FUBP3 / Fold change vs veh, FUBP3 / RFU, TP53 / Fold change vs veh, TP53 / RFU, TNKS2 / Fold change vs veh, TNKS2 / RFU, ZFP14 / Fold change vs veh, ZFP14 / RFU, ACTR2 / Fold change vs veh, ACTR2 / RFU, PPP3R1 / Fold change vs veh, PPP3R1 / RFU, PIK3R1 / Fold change vs veh, PIK3R1 / RFU, HNRNPA1 / Fold change vs veh, HNRNPA1 / RFU, RNF170 / Fold change vs veh, RNF170 / RFU, ZNF28 / Fold change vs veh, ZNF28 / RFU, RNGTT / Fold change vs veh, RNGTT / RFU, OGT / Fold change vs veh, OGT / RFU, BRD1 / Fold change vs veh, BRD1 / RFU, MARS / Fold change vs veh, MARS / RFU, ZNF655 / Fold change vs veh, ZNF655 / RFU, FAHD1 / Fold change vs veh, FAHD1 / RFU, BDP1 / Fold change vs veh, BDP1 / RFU, LRRCC1 / Fold change vs veh, LRRCC1 / RFU, ARID1A / Fold change vs veh, ARID1A / RFU, ZNF146 / Fold change vs veh, ZNF146 / RFU, ZNF330 / Fold change vs veh, ZNF330 / RFU, GPN3 / Fold change vs veh, GPN3 / RFU, C9orf123 / Fold change vs veh, C9orf123 / RFU, N4BP2L2 / Fold change vs veh, N4BP2L2 / RFU, ARFIP1 / Fold change vs veh, ARFIP1 / RFU, FAM179B / Fold change vs veh, FAM179B / RFU, BCL10 / Fold change vs veh, BCL10 / RFU, UHRF1BP1L / Fold change vs veh, UHRF1BP1L / RFU, BET1 / Fold change vs veh, BET1 / RFU, CNOT2 / Fold change vs veh, CNOT2 / RFU, ZNF268 / Fold change vs veh, ZNF268 / Fold change vs veh, ZNF507 / RFU, DGCR2 / Fold change vs veh, DGCR2 / RFU, WDSUB1 / Fold change vs veh, WDSUB1 / Fold change vs veh, HSP90B1 /// MIR3652 / RFU, ADSS / Fold change vs veh, ADSS / RFU, GK / Fold change vs veh, GK / RFU, ZNF148 / Fold change vs veh, ZNF148 / RFU, TAF9 / Fold change vs veh, TAF9 / RFU, SLC1A5 / Fold change vs veh, SLC1A5 / RFU, SLMO2 / Fold change vs veh, SLMO2 / RFU, ABCC4 / Fold change vs veh, ABCC4 / RFU, LOC101060439 /// RAP1B / Fold change vs veh, LOC101060439 /// RAP1B / RFU, RFX7 / Fold change vs veh, RFX7 / RFU, GTPBP10 / Fold change vs veh, GTPBP10 / RFU, CNEP1R1 / Fold change vs veh, CNEP1R1 / RFU, BIVM-ERCC5 /// ERCC5 / Fold change vs veh, BIVM-ERCC5 /// ERCC5 / RFU, ILF3 / Fold change vs veh, ILF3 / RFU 11762660_at / Fold change /veh 11762660_at / RFU VCAN (11757783_s_at) / Fold change /veh VCAN (11757783_s_at) / RFU DDX43 (11728927_at) / Fold change /veh DDX43 (11728927_at) / RFU KRT8 (11758188_x_at) / Fold change /veh KRT8 (11758188_x_at) / RFU NKD1 (11759106_at) / Fold change /veh NKD1 (11759106_at) / RFU SRD5A1 (11742802_a_at) / Fold change /veh SRD5A1 (11742802_a_at) / RFU TPSAB1 /// TPSB2 (11721975_s_at) / Fold change /veh TPSAB1 /// TPSB2 (11721975_s_at) / RFU GSTM3 (11746129_a_at) / Fold change /veh GSTM3 (11746129_a_at) / RFU IL23R (11737362_x_at) / Fold change /veh IL23R (11737362_x_at) / RFU TMEM51 (11727254_a_at) / Fold change /veh TMEM51 (11727254_a_at) / RFU PIWIL2 (11732686_x_at) / Fold change /veh PIWIL2 (11732686_x_at) / RFU ORM1 (11744905_x_at) / Fold change /veh ORM1 (11744905_x_at) / RFU CCDC152 (11743942_at) / Fold change /veh CCDC152 (11743942_at) / RFU ECM1 (11717891_a_at) / Fold change /veh ECM1 (11717891_a_at) / RFU IL23R (11748794_a_at) / Fold change /veh IL23R (11748794_a_at) / RFU TNFAIP8L3 (11732012_x_at) / Fold change /veh TNFAIP8L3 (11732012_x_at) / RFU MBOAT4 (11741988_at) / Fold change /veh MBOAT4 (11741988_at) / RFU 11764193_at / Fold change /veh 11764193_at / RFU TMEM53 (11763286_at) / Fold change /veh TMEM53 (11763286_at) / RFU MAGEB2 (11727129_at) / Fold change /veh MAGEB2 (11727129_at) / RFU TMEM200A (11744735_a_at) / Fold change /veh TMEM200A (11744735_a_at) / RFU CCDC152 (11751479_a_at) / Fold change /veh CCDC152 (11751479_a_at) / RFU FAM211A (11726209_a_at) / Fold change /veh FAM211A (11726209_a_at) / RFU RGS16 (11746705_a_at) / Fold change /veh RGS16 (11746705_a_at) / RFU VCAN (11755009_s_at) / Fold change /veh VCAN (11755009_s_at) / RFU RHOB (11743442_s_at) / Fold change /veh RHOB (11743442_s_at) / RFU RGS16 (11720943_a_at) / Fold change /veh RGS16 (11720943_a_at) / RFU RGS16 (11720944_at) / Fold change /veh RGS16 (11720944_at) / RFU, VPS4B / Fold change vs veh, VPS4B / RFU, CREB1 / Fold change vs veh, CREB1 / RFU, DNAJC13 / Fold change vs veh, DNAJC13 / RFU, GNAQ / Fold change vs veh, GNAQ / RFU, CDK5R1 / Fold change vs veh, CDK5R1 / RFU, ZRANB3 / Fold change vs veh, ZRANB3 / RFU, CUL4A / Fold change vs veh, CUL4A / RFU, CCNY / Fold change vs veh, CCNY / RFU, UFL1 / Fold change vs veh, UFL1 / RFU, COG3 / Fold change vs veh, COG3 / RFU, DIAPH2 / Fold change vs veh, DIAPH2 / RFU, SKA2 / Fold change vs veh, SKA2 / RFU, AFF3 / Fold change vs veh, AFF3 / RFU, LMF1 / Fold change vs veh, LMF1 / RFU, IPO11 / Fold change vs veh, IPO11 / RFU, DFFB / Fold change vs veh, DFFB / RFU, FOXP1 / Fold change vs veh, FOXP1 / RFU, CARD8 / Fold change vs veh, CARD8 / RFU, STRN3 / Fold change vs veh, STRN3 / RFU, ADK / Fold change vs veh, ADK / RFU, RASSF2 / Fold change vs veh, RASSF2 / RFU, WIPF1 / Fold change vs veh, WIPF1 / RFU, LARP1B / Fold change vs veh, LARP1B / RFU, RASA1 / Fold change vs veh, RASA1 / RFU, RB1 / Fold change vs veh, RB1 / RFU, PPFIA1 / Fold change vs veh, PPFIA1 / RFU, MAT2A / Fold change vs veh, MAT2A / RFU, CCT5 / Fold change vs veh, CCT5 / RFU, WDR92 / Fold change vs veh, WDR92 / RFU, CUX1 / Fold change vs veh, CUX1 / RFU, TTC7A / Fold change vs veh, TTC7A / RFU, TMEM135 / Fold change vs veh, TMEM135 / RFU, DEPTOR / Fold change vs veh, DEPTOR / RFU, CPM / Fold change vs veh, CPM / RFU, DNAJB6 / Fold change vs veh, DNAJB6 / RFU, CACNA2D3 / Fold change vs veh, CACNA2D3 / RFU, DTX4 / Fold change vs veh, DTX4 / RFU, TFCP2 / Fold change vs veh, TFCP2 / RFU, GMCL1 /// GMCL1P1 / Fold change vs veh, GMCL1 /// GMCL1P1 / RFU, AEBP2 / Fold change vs veh, AEBP2 / RFU, SNHG1 /// SNORD22 /// SNORD25 /// SNORD26 /// SNORD27 /// SNORD28 /// SNORD29 /// SNORD31 / Fold change vs veh, SNHG1 /// SNORD22 /// SNORD25 /// SNORD26 /// SNORD27 /// SNORD28 /// SNORD29 /// SNORD31 / Fold change (Aza/veh), C12orf56 (ProbeSet 11735607_a_at) / Fold change (ACY-1035/veh), C12orf56 (ProbeSet 11735607_a_at) / Fold change (Aza/veh), FGFR1OP (ProbeSet 11751329_s_at) / Fold change (ACY-1035/veh), FGFR1OP (ProbeSet 11751329_s_at) / Fold change (Aza/veh), VPS36 (ProbeSet 11739960_a_at) / Fold change (ACY-1035/veh), VPS36 (ProbeSet 11739960_a_at) / RFU SYPL1 (11715823_x_at) / Fold change /veh SYPL1 (11715823_x_at) / RFU IGFBP7 (11715501_s_at) / Fold change /veh IGFBP7 (11715501_s_at) / RFU REEP3 (11722064_at) / Fold change /veh REEP3 (11722064_at) / RFU IGLL1 (11728026_x_at) / Fold change /veh IGLL1 (11728026_x_at): dose or concentration left out as unconfirmed.

Take `Nc1ccc(-c2cccs2)cc1NC(=O)c1ccc2c(c1)cc(C1CC1)n2CCN1CCOCC1` [ACY-1035]: the “RFU CASKIN2 (11723855_a_at)” value amounted to 29.44 RFU.

Values taken from paper PMC5218480 (PLoS ONE, 2017).
